Laboratory results: patent US7877928B2, “Apparatus for use with a method for mass production of seedling of seed potato” (Koesan County, priority 2005, dated 2011)

Key:
[1] = test system: in vitro potato seedlings, potato cultivar "Superior"; test: Seedling quality (growth state) of in vitro tissue-cultured potato plantlets according to supplemented components of MS medium; type: in vivo
Procedure: (§1) In order to determine conditions suitable for planting through stem cutting and acclimatizing tissue-cultured plantlets in DSCAC, the in vitro potato seedlings were evaluated for seedling quality and survival rates upon stem-cutting and acclimation according to the amount of supplemented components of MS medium.
(§2) The culture seedlings obtained from growing points collected from a seed potato cultivar, were tested for infection with viruses (PLRV, PVY, PVX, PVM, PVS and AMV) for selection of disease-free individuals. Then, plantlets were planted in 500-ml culture bottles containing 200 ml of a solid medium, which was prepared with a basic MS medium of pH 5.8 supplemented with 9 g/L of agar, and incubated for 25 days in a culture room under 4,500 Lux lighting for 18-20 hrs, and 0 Lux for 4-6 hrs using 4D fluorescent lamps, wherein the room temperature was maintained at 21° C. using an air conditioner. The in vitro potato seedlings were examined for growth states and survival rates upon stem-cutting and acclimation according to the amount of supplemented components of the medium.

[2] = test system: in vitro potato seedlings, potato cultivar "Superior"; test: Survival rates of stem cuttings of in vitro potato seedlings upon stem-cutting and acclimation according to supplemented components of MS medium; type: in vivo
Procedure: as §1, §2

[3] = coumarin 0.010 mg/L + sucrose 30 g/L in MS medium
[4] = coumarin 0.010 mg/L + sucrose 80 g/L in MS medium
[5] = coumarin 0.015 mg/L + sucrose 30 g/L in MS medium
[6] = coumarin 0.015 mg/L + sucrose 80 g/L in MS medium
[7] = coumarin 0.020 mg/L + sucrose 30 g/L in MS medium
[8] = coumarin 0.020 mg/L + sucrose 80 g/L in MS medium
[9] = coumarin 0.025 mg/L + sucrose 30 g/L in MS medium
[10] = coumarin 0.025 mg/L + sucrose 80 g/L in MS medium
[11] = coumarin 0.030 mg/L + sucrose 30 g/L in MS medium
[12] = coumarin 0.030 mg/L + sucrose 80 g/L in MS medium
[13] = coumarin 0.035 mg/L + sucrose 30 g/L in MS medium
[14] = coumarin 0.035 mg/L + sucrose 80 g/L in MS medium
[15] = Table 2: sucrose 30 g/L, coumarin 0 mg/L in MS medium
[16] = Table 2: sucrose 80 g/L, coumarin 0 mg/L in MS medium
[17] = Table 3: sucrose 30 g/L, hyponex 0 g/L in MS medium
[18] = Table 3: sucrose 80 g/L, hyponex 0 g/L in MS medium
[19] = sucrose 20 g/L in MS medium, 25 days
[20] = sucrose 40 g/L in MS medium, 25 days
[21] = sucrose 60 g/L in MS medium, 25 days
[22] = sucrose 80 g/L in MS medium, 25 days
[23] = sucrose 100 g/L in MS medium, 25 days
[24] = sucrose 120 g/L in MS medium, 25 days
[25] = sucrose 140 g/L in MS medium, 25 days

Question: For `O=c1ccc2ccccc2o1` [Coumarin, coumarin], which “Seedling quality and survival rates” value ([1]; MS medium with 80 g/L sucrose and 0.025 mg/L coumarin, compared with other amounts) is on record?
Answer: highest seedling quality and survival rates

Question: And the Fresh weight [1, 3]?
Answer: 0.57 g/plant

Question: What about the Plant length [1, 3] of the same compound?
Answer: 6.1 cm/plant

Question: What about the Fresh weight [1, 4] of the same compound?
Answer: 1.12 g/plant

Question: What about the Plant length [1, 4] of the same compound?
Answer: 7.8 cm/plant

Question: What about the Fresh weight [1, 5] of the same compound?
Answer: 0.63 g/plant

Question: What about the Plant length [1, 5] of the same compound?
Answer: 6.5 cm/plant

Question: And the Fresh weight [1, 6]?
Answer: 1.13 g/plant

Question: What about the Plant length [1, 6] of the same compound?
Answer: 7.9 cm/plant

Question: What about the Fresh weight [1, 7] of the same compound?
Answer: 0.71 g/plant

Question: And the Plant length [1, 7]?
Answer: 6.7 cm/plant

Question: And the Fresh weight [1, 8]?
Answer: 1.31 g/plant

Question: And the Plant length [1, 8]?
Answer: 8.1 cm/plant

Question: What about the Fresh weight [1, 9] of the same compound?
Answer: 0.84 g/plant

Question: And the Plant length [1, 9]?
Answer: 6.9 cm/plant

Question: And the Fresh weight [1, 10]?
Answer: 1.65 g/plant

Question: And the Plant length [1, 10]?
Answer: 9.5 cm/plant

Question: And the Fresh weight [1, 11]?
Answer: 0.86 g/plant

Question: What about the Plant length [1, 11] of the same compound?
Answer: 6.7 cm/plant

Question: And the Fresh weight [1, 12]?
Answer: 1.39 g/plant

Question: What about the Plant length [1, 12] of the same compound?
Answer: 8.3 cm/plant

Question: And the Fresh weight [1, 13]?
Answer: 0.71 g/plant

Question: And the Plant length [1, 13]?
Answer: 6.4 cm/plant

Question: And the Fresh weight [1, 14]?
Answer: 1.36 g/plant

Question: And the Plant length [1, 14]?
Answer: 8.2 cm/plant

Question: What about the “Survival rates of stem cuttings” value [2, 3] of the same compound?
Answer: 73

Question: And the “Survival rates of stem cuttings” value [2, 4]?
Answer: 90

Question: And the “Survival rates of stem cuttings” value [2, 5]?
Answer: 78

Question: What about the “Survival rates of stem cuttings” value [2, 6] of the same compound?
Answer: 92

Question: And the “Survival rates of stem cuttings” value [2, 7]?
Answer: 80

Question: What about the “Survival rates of stem cuttings” value [2, 8] of the same compound?
Answer: 100

Question: What about the “Survival rates of stem cuttings” value [2, 9] of the same compound?
Answer: 83

Question: What about the “Survival rates of stem cuttings” value [2, 10] of the same compound?
Answer: 100

Question: And the “Survival rates of stem cuttings” value [2, 11]?
Answer: 88

Question: What about the “Survival rates of stem cuttings” value [2, 12] of the same compound?
Answer: 100

Question: What about the “Survival rates of stem cuttings” value [2, 13] of the same compound?
Answer: 81

Question: What about the “Survival rates of stem cuttings” value [2, 14] of the same compound?
Answer: 100

Question: How did the Fresh weight [1, 15] turn out when `OC[C@H]1O[C@@](CO)(O[C@H]2O[C@H](CO)[C@@H](O)[C@H](O)[C@H]2O)[C@@H](O)[C@@H]1O` [Sucrose, sucrose] was run?
Answer: 0.53 g/plant

Question: And the Plant length [1, 15]?
Answer: 5.3 cm/plant

Question: And the Fresh weight [1, 16]?
Answer: 0.72 g/plant

Question: And the Plant length [1, 16]?
Answer: 8.6 cm/plant

Question: What about the Fresh weight [1, 17] of the same compound?
Answer: 0.53 g/plant

Question: What about the Plant length [1, 17] of the same compound?
Answer: 7.2 cm/plant

Question: And the Fresh weight [1, 18]?
Answer: 1.03 g/plant

Question: And the Plant length [1, 18]?
Answer: 7.59 cm/plant

Question: And the Fresh weight [1, 19]?
Answer: 0.47 g/plant

Question: And the Plant length [1, 19]?
Answer: 6.2 cm/plant

Question: What about the Fresh weight [1, 20] of the same compound?
Answer: 0.53 g/plant

Question: And the Plant length [1, 20]?
Answer: 7.4 cm/plant

Question: What about the Fresh weight [1, 21] of the same compound?
Answer: 0.58 g/plant

Question: What about the Plant length [1, 21] of the same compound?
Answer: 9.3 cm/plant

Question: What about the Fresh weight [1, 22] of the same compound?
Answer: 0.75 g/plant

Question: What about the Plant length [1, 22] of the same compound?
Answer: 9.5 cm/plant

Question: And the “Benefit to in vitro plantlets (plant length, fresh weight, survival rates of stem cuttings)” value ([1]; sucrose 80 g/L in MS medium, compared with other amounts)?
Answer: most beneficial

Question: What about the Fresh weight [1, 23] of the same compound?
Answer: 0.69 g/plant

Question: What about the Plant length [1, 23] of the same compound?
Answer: 6.1 cm/plant

Question: And the Fresh weight [1, 24]?
Answer: 0.63 g/plant

Question: What about the Plant length [1, 24] of the same compound?
Answer: 5.2 cm/plant

Question: What about the Fresh weight [1, 25] of the same compound?
Answer: 0.67 g/plant

Question: What about the Plant length [1, 25] of the same compound?
Answer: 2.1 cm/plant

Question: What about the “Survival rates of stem cuttings” value [2, 15] of the same compound?
Answer: 33

Question: What about the “Survival rates of stem cuttings” value [2, 16] of the same compound?
Answer: 70

Question: And the “Survival rates of stem cuttings” value [2, 17]?
Answer: 28

Question: What about the “Survival rates of stem cuttings” value [2, 18] of the same compound?
Answer: 79

Question: What about the “Survival rates of stem cuttings” value ([2]; sucrose 20 g/L in MS medium) of the same compound?
Answer: 27%

Question: And the “Survival rates of stem cuttings” value ([2]; sucrose 40 g/L in MS medium)?
Answer: 34%

Question: And the “Survival rates of stem cuttings” value ([2]; sucrose 60 g/L in MS medium)?
Answer: 59%

Question: What about the “Survival rates of stem cuttings” value ([2]; sucrose 80 g/L in MS medium) of the same compound?
Answer: 71%

Question: What about the “Survival rates of stem cuttings” value ([2]; sucrose 100 g/L in MS medium) of the same compound?
Answer: 68%

Question: What about the “Survival rates of stem cuttings” value ([2]; sucrose 120 g/L in MS medium) of the same compound?
Answer: 67%

Question: What about the “Survival rates of stem cuttings” value ([2]; sucrose 140 g/L in MS medium) of the same compound?
Answer: 72%
